# Reference: patent US7371812B2, “Antiangiogenic peptides” (Children's Medical Center Corporation, priority 2003, dated 2008)
# B1: T2C: recombinant His-tagged TIMP-2 domain composed of the three C-terminal disulfide-bonded loops (~8.5 kD), expressed in Pichia pastoris (protein)
# chain: CKITRCPMIPCYISSPDECLWMDWVTEKNINGHQAKFFACIKRSDGSCAWYRGAAPPKQEFLDIEDP
# modifications: disulfide (positions not given here); also: His tag, disulfide pairing not given here
# notes: recombinant His-tagged TIMP-2 domain composed of the three C-terminal disulfide-bonded loops (~8.5 kD), expressed in Pichia pastoris
# Tests used:
# [1] = test system: embryonic angiogenesis in the chick chorioallantoic membrane; assay: Chick chorioallantoic membrane assay (CAM); format: in vivo; conditions: methylcellulose disc, 48 hours
# Method: The chick CAM assay was conducted as previously reported by us (Moses et al., 1990; Moses et al., 1992; O'Reilly et al., 1994; Moses et al., 1999; Fang et al., 2000) Briefly, three day old chick embryos were removed from their shells and incubated in plastic Petri dishes for three days. On embryonic day 6, samples and controls mixed into methylcellulose discs were applied to the surfaces of developing CAMs, above the dense subectodermal plexus. After 48 hours of incubation, the eggs were examined for vascular reactions under a dissecting scope (60×) and photographed. All determinations were made by 3 independent members of the laboratory, in a double-blinded fashion.
# [2] = test system: Capillary endothelial cells (EC), isolated from bovine adrenal cortex; assay: bFGF-stimulated capillary EC proliferation assay; format: cell-based
# Method: Capillary endothelial cells (EC), isolated from bovine adrenal cortex, were a kind gift of Dr. Judah Folkman (Children's Hospital, Boston) and were maintained in DMEM (Gibco) supplemented with 10% calf serum (HyClone) and 3 ng/ml bFGF, and grown at 37° C. in 10% CO2. Capillary EC proliferation was measured as previously reported by us (Moses et al., 1990; Moses et al., 1992; O'Reilly et al., 1994; Moses et al., 1999) using a modification of the method of Connolly and coworkers (and verified by cell counting using a Coulter Counter) (Connolly et al., 1986). Briefly, capillary EC were plated on pre-gelatinized 96 well plates at a density of 2,000 cells per well in DMEM supplemented with 5% calf serum and allowed to attach for 24 hours. The next day, cells were treated with fresh media with or without 1 ng/ml bFGF and challenged with the test proteins at various concentrations. All samples were tested in duplicate. Control wells contained cell treated with media alone or media with bFGF. After 72 hours, the media was removed and the cells were lysed in buffer containing Triton X-100 and the phosphatase substrate p-nitrophenyl phosphate. After a two-hour incubation at 37° C., NaOH was added to each well to terminate the reaction and cell density was determined by calorimetric analysis using a SpectraMax 190 multiwell plate reader (Molecular Devices).
# [3] = test system: bFGF-driven corneal neovascularization; assay: Mouse corneal pocket assay; format: in vivo
# Method: In vivo inhibition of angiogenesis was also tested using the mouse corneal pocket assay as previously described (O'Reilly et al., 1994; Moses et al., 1999). […] Each animal carried a pellet containing the test sample plus bFGF in one eye, and a control bFGF pellet in the contralateral eye. After six days, angiogenesis was evaluated using a slit lamp microscope, and each eye was photographed. The area of neovascularization for each cornea was calculated from the length of the vessels (VL) invading the cornea as well as the clock hours (CH) covered as described by the formula VL×CH×0.0628.
# Capillary EC [4] = assay: FGF competition assay; format: cell-based, bovine; conditions: IC50 dose of Loop 6, increasing concentrations of bFGF
# Excerpt: To further map the anti-proliferative activity of TIMP-2 within T2C, three peptides corresponding to various smaller domains of T2C were synthesized, purified and tested for their ability to inhibit bFGF-stimulated capillary EC proliferation in vitro. These domains and are depicted in FIG. 6A. […] Given that Loop 6 inhibits bFGF-driven endothelial cell proliferation, we asked whether Loop 6 could directly compete with bFGF.
# [5] = test system: vascular smooth muscle cells; assay: Vascular smooth muscle cell proliferation (data not shown); format: cell-based
# [6] = test system: activated type I collagenase; assay: 14C-Collagen Film Assay of MMP-inhibitory activity; format: biochemical; conditions: T2C and EAT2N up to approximately 100-fold the IC50 of T2N
# Method: MMP-inhibitory activity was assessed using a quantitative ^14C-Collagen Film Assay, as previously described by us (Moses et al., 1990). Briefly, ^14C-labeled collagen was added to 96 well plates and allowed to polymerize. To determine inhibitory activity, wells were treated with a known amount of activated type I collagenase plus test sample or with collagenase alone, and the plates incubated at 37° C. for 2.5 hours to allow for release of ^14C by the enzyme. Supernantants were then analyzed in a Wallac Scintillation Counter, and percent inhibition of collagenolytic activity was calculated. An IC50 was defined as the amount of protein necessary to inhibit the proteolytic activity of collagenase by 50%.
# Capillary EC [7] = assay: Apoptosis assay (TUNEL, DAPI); format: cell-based, bovine; conditions: bFGF-stimulated, 6 hours; Loop 6 at IC50 dose, wortmannin 100 mM
# Method: In situ detection of cell death was determined using terminal deoxynucleotidyl transferase dUTP nick-end labeling (TUNEL) following manufacturer's instructions (In Situ Cell Death Detection Kit, Roche Applied Science, Indianapolis, Ind.). Capillary EC were plated at a density of 10,000 cells per well on pre-gelatinized Lab-Tek Chamber Slides (Nalge Nunc, Naperville, Ill.) in DMEM supplemented with 5% calf serum and allowed to attach for 24 hours. The next day, cells were treated with fresh media supplemented with 1 ng/ml bFGF and challenged with an IC50 dose of Loop 6 or […] wortmannin, a dose previously reported to induce apoptosis of capillary E (Flusberg et al., 2001). Cells stimulated with bFGF alone were also used as controls. All samples were tested in duplicate. After 6 hours, the cells were rinsed with PBS and then fixed in 4% paraformaldehyde for 1 hour at room temperature. Fixed cells were again rinsed with PBS and permeabilised with 0.1% Triton X-100 in 0.1% sodium citrate on ice for 2 minutes. After two more rinses in PBS, the cells were exposed to TUNEL reaction mixture and incubated at 37° C. […] Apoptotic nuclei were detected using a Nikon Eclipse TE300 microscope (Nikon Instruments, Melville, N.Y.).
# [8] = test system: Cyclin D1, Cyclin E, Cyclin A and p27 in capillary EC lysates; assay: Immunoblot analyses of cell cycle associated proteins; format: cell-based, bovine; conditions: IC50 dose, 16 hours, versus bFGF-stimulated controls
# Method: Western analyses of capillary EC lysates were performed as previously described by us (Moses et al., 1999; Yan et al., 2001). Capillary EC were plated, synchronized and treated with an IC50 dose of Loop 6 as described above for cell cycle analysis. After 16 hours, cells exposed to bFGF alone or bFGF and Loop 6 were rinsed in PBS and lysed directly in the culture dish by addition of 500 μl of lysis buffer (1% SDS in 10 mM Tris-Hcl, pH 7.4). Collected lysates were boiled for 5 minutes, mixed by vortexing and then placed on ice. Samples were repeatedly passed through a 22-gauge syringe needle in order to shear the DNA. The samples were then centrifuged, and the supernatant collected. Protein concentration of the lysates was determined using the MicroBCA method (Pierce, Rockford, Ill.). Equal amounts of protein were loaded unto 12% SDS-PAGE gels under reducing conditions, resolved by electrophoresis and subsequently transferred to nitrocellulose using a TransBlot apparatus (BioRad). […] Labeled proteins were detected using Supersignal West Pico Chemiluminescence Substrate (Pierce).
# Capillary EC [9] = assay: Cell cycle analysis by flow cytometry; format: cell-based, bovine; conditions: synchronized, bFGF-stimulated, 16 hours; for cells in G1 / cells in G2/M: IC50 dose of Loop 6 or equivalent dose of T2-Tail
# Method: Capillary EC were plated at a density of 100,000 cells per plate unto pre-gelatinized 60 mm dishes in DMEM supplemented with 5% calf serum and allowed to attach overnight. The next day, the media was replaced with DMEM supplemented with 0.4% calf serum in order to synchronize the cells by serum starvation. After 36 hours, synchronized cells were stimulated with DMEM containing 5% calf serum plus 1 ng/ml bFGF, and then treated with an IC50 dose of Loop 6 or an equivalent dose of the T2-Tail peptide as control. After 16 hours, the cells were rinsed with PBS, trypsinized and collected by centrifugation. Pelleted cells were rinsed again with PBS and resuspended in 1 ml of 80% ethanol in PBS, and stored at −20° C. overnight. The next morning, cells were collected by centrifugation and resuspended in 500 μl of staining solution (0.1% sodium citrate, 100 μg/ml RNAse A, 0.1% Nonidet-P40, 50 μg/ml propidium iodide). After 30 minutes, DNA content of the cells and the percentages of cells in the various stages of the cell cycle were determined using a FACSVantage SE (Becton Dickinson, Franklin Lanes, N.J.). FACS analysis was performed at the Howard Hughes Institute of Medicine FACS Core Facility at Children's Hospital. All samples were tested in at least duplicate. Histograms of representative experiments for each test condition were created using WinMDI 2.8 (The Scripps Research Institute, La Jolla, Calif.).
Molecule,effect on neovascularization in the CAM [1],"effect on bFGF-stimulated capillary EC proliferation ([2]; 1 ng/ml bFGF, 72 hours)",inhibition of MMP activity [6],cells in G1 (Capillary EC [9]) [%],cells in G2/M (Capillary EC [9]) [%],other results
"Loop 5: 10 amino acid peptide corresponding to Loop 5 of TIMP-2, sequence TRCPMIPCYI (SEQ ID NO: 2) [reference compound]",Neither Loop 5 nor the T2-Tail peptides had any significant effect on neovascularization,stimulated the proliferation of capillary EC,,,,
"Loop 6: 24 amino acid peptide corresponding to Loop 6 of TIMP-2, sequence ECLWMDWVTEKNINGHQAKFFACI (SEQ ID NO: 1)",resulted in avascular zones at doses comparable to those tested for T2C,significantly inhibited capillary EC proliferation,neither T2C nor Loop 6 inhibit MMP activity,45.6,9.53,"suppression of bFGF-stimulated neovascularization ([3]; 3 μg/eye, versus contralateral control eyes): ~80%; competition with bFGF (Capillary EC [4]): not abrogated by increasing doses of bFGF; proliferation of vascular smooth muscle cells [5]: did not inhibit the proliferation of vascular smooth muscle cells; induction of apoptosis (apoptotic nuclei) (Capillary EC [7]): not an inducer of apoptosis; level of p27 [8]: significantly increased; levels of Cyclins D1, E or A [8]: No significant differences; number of cells in S-phase (Capillary EC [9]; IC50 dose): did not change significantly"
"T2-Tail: 19 amino acid peptide corresponding to the carboxy-terminal tail of TIMP-2, sequence AWYRGAAPPKQEFLDIEDP (SEQ ID NO: 3) [reference compound]",Neither Loop 5 nor the T2-Tail peptides had any significant effect on neovascularization,had no effect,,27.8,34.6,
"VIRAK: control peptide of sequence VIRAK (SEQ ID NO: 4), conserved sequence in the N-terminal domain of all TIMPs [reference compound]",,no inhibition of capillary EC proliferation,,,,
B1,decrease in neovascularization,,No significant inhibition of MMP activity,,,"reduction of bFGF-driven corneal neovascularization ([3]; 5 μg/eye, versus contralateral control eye with only bFGF, six days): 87%; lowest dose producing avascular zones [1]: 112 pmol per egg; cytotoxicity to capillary EC [2]: no evidence of cytotoxicity; IC50 ([2]; 1 ng/ml bFGF, 72 hours, read-out: IC50 of inhibition of capillary EC proliferation): ~140 nM"
